# In US9155706B2, “Pharmaceutical composition” (Novartis AG, priority 2010, dated 2015):
# Several values for one entry are separate records, joined by “and”; a condition that tells them apart may be missing. Identical values can stand only once. Entries after “also recorded” stand apart in the source; their conditions may differ. Like-named read-outs stand apart in the source and are kept apart here.
# Experiments:
# [1] = Photostability: light exposure under ICH Q1B conditions, impurities by HPLC; assay type: physicochemical
# Description: Uncoated tablets, 0.5, 1 and 2 mg were exposed to ICH Photostability conditions and tested to provide baseline impurity information for comparison.
# [2] = Toxic effects at high doses (statement); assay type: in vivo; settings: when administered in high doses
# [3] = Exposure and absorption upon in vivo administration (statement)
# [4] = Desolvation during handling and formulation (statement); assay type: physicochemical
# [5] = Solubility (comparative statement); assay type: physicochemical
# [6] = Repeat dose toxicokinetics and toxicology, oral gavage, DMSO solvate of Compound, rat; settings: for Cmax End of Study: Sprague Dawley, rat, in vivo, po, 0.25 mg/m2
# Description: (§1) The pharmacokinetics, absorption, distribution, metabolism and elimination of N-{3-[3-cyclopropyl-5-(2-fluoro-4-iodo-phenylamino)-6, 8-dimethyl-2,4,7-trioxo-3,4,6,7-tetrahydro-2H-pyrido[4,3-d]pyrimidin-1-yl]phenyl}acetamide and solvates thereof, including the dimethyl sulfoxide solvate (collectively referred to as “Compound” when used in connection with animal models or human clinical trials), were investigated in a series of in vitro investigations and with in vivo oral (gavage) and IV studies in the Balb/c mouse, Sprague Dawley rat (unless otherwise stated), beagle dog and cynomolgus monkey using unlabeled and [14C]-labeled Compound. A list of these studies is included, along with subsequently obtained human clinical results, in Table 1 below. For in vivo studies, various formulations were used. For oral dosing, solutions or suspensions were administered.
# (§2) Dose range studies in rats at doses up to 1 mg/kg/day for 14 days and in dogs at doses up to 0.5 mg/kg/day (or 10 mg/m2/day) for 10 days were conducted prior to the studies.
# (§3) In vivo toxicology studies were conducted in Sprague Dawley rats and beagle dogs by oral gavage (Table 3). Studies were conducted using the DMSO solvate of Compound formulated as a suspension in 1.5% hydroxypropylmethylcellulose, 5% mannitol, and 0.2% sodium lauryl sulfate. For all toxicology studies, doses are expressed based on body surface area (mg/m2). In general, to convert mg/m2 doses to mg/kg, divide the doses by 8 for rats and 20 for dogs.
# [7] = female, beagle, dog, in vivo, po
# Description: as §1, §2
# as §3, with “In general, to convert mg/m2 doses to mg/kg, divide the doses by 8 for rats and 20 for dogs.” left out
# clinical = settings: human, plasma, oral, 2 mg
# Description: (§4) Preliminary PK data was obtained in subjects with solid tumors following single-and repeat-dose oral administration of Compound tablets. The dose-escalation part of the first-time-in-human study (FTIH), involved administration of Compound in one of 3 main dosing regimens: • QD dosing with the designated dose for 21 days, followed by 7 days without drug; • Administration of a loading dose (LD) on both Day 1 and Day 2, or on Day 1 only, followed by continuous QD dosing with the designated dose; or • Administration of continuous QD dosing without a loading dose.
# (§5) Additional blood samples were taken pre-dose on Day 15 of Cycle 1 and Day 1 of further cycles in Part 2 and Part 3 to assess steady state trough levels of Compound.
# [8] = Single-dose (Day 1) pharmacokinetics of Compound tablets, first-time-in-human study; settings: fasting; for AUC(0-t): AUC (0-24); for Tmax: median (range)
# Description: Preliminary PK data was obtained in subjects with solid tumors following single-and repeat-dose oral administration of Compound tablets.
# [9] = Repeat-dose (Day 15) pharmacokinetics of Compound tablets, first-time-in-human study; settings: individual values
# Description: as §4, §5
# [10] = single dose Day 1, oral tablets, 0.5 mg, individual values
# [11] = single dose Day 1, oral tablets, 1.0 mg, individual values
structure (smiles),measurement,setting,value
"CC(=O)Nc1cccc(-n2c(=O)n(C3CC3)c(=O)c3c(Nc4ccc(I)cc4F)n(C)c(=O)c(C)c32)c1 [Compound A, N-{3-[3-cyclopropyl-5-(2-fluoro-4-iodo-phenylamino)-6,8-dimethyl-2,4,7-trioxo-3,4,6,7-tetrahydro-2H-pyrido[4,3-d]pyrimidin-1-yl]phenyl}acetamide dimethyl sulfoxide solvate]",photo-stability (in words),[1],sensitive to photo-induced degradation; also recorded: can suffer from photo-instability
same,toxic effects,[2],can cause toxic effects when administered in high doses
same,exposure and absorption,[3],poor exposure and absorption
same,desolvation to unsolvated Compound B,[4],can undergo desolvation
"CC(=O)Nc1cccc(-n2c(=O)n(C3CC3)c(=O)c3c(Nc4ccc(I)cc4F)n(C)c(=O)c(C)c32)c1 [Compound B, N-{3-[3-cyclopropyl-5-(2-fluoro-4-iodo-phenylamino)-6,8-dimethyl-2,4,7-trioxo-3,4,6,7-tetrahydro-2H-pyrido[4,3-d]pyrimidin-1-yl]phenyl}acetamide]",solubility compared with Compound A,[5],much less soluble than Compound A
"CC(=O)Nc1cccc(-n2c(=O)n(C3CC3)c(=O)c3c(Nc4ccc(I)cc4F)n(C)c(=O)c(C)c32)c1 [Compound, N-{3-[3-cyclopropyl-5-(2-fluoro-4-iodo-phenylamino)-6,8-dimethyl-2,4,7-trioxo-3,4,6,7-tetrahydro-2H-pyrido[4,3-d]pyrimidin-1-yl]phenyl}acetamide]",maximum tolerated dose (MTD),"[6]; Rat, 3 weeks, oral, two doses marked MTD, sex shown by bolding that is lost",0.5 mg/m^2/day and 1 mg/m^2/day
same,Cmax End of Study,[6]; female,8.03 ng/mL
same,Cmax End of Study,[6]; male,5.34 ng/mL
same,Cmax End of Study,[7]; 0.3 mg/m2,7.24 ng/mL
same,Cmax End of Study,[7]; 0.45 mg/m2,9.78 ng/mL
same,half-life,clinical,~120 h
same,C24,"[8]; Day 1, oral tablets, 6.0 mg loading dose, mean (CV %) and range",(3.4-11.1) ng/mL
same,C24,"[8]; Day 1, oral tablets, 8.0 mg loading dose, mean (CV %) and range",(2.98-12.1) ng/mL
same,C24,"[8]; Day 1, oral tablets, 10.0 mg loading dose, mean (CV %) and range",(21.0-29.0) ng/mL
same,Cmax,"[8]; human, plasma, po, 0.5 mg, Cmax, single dose Day 1, oral tablets, 0.5 mg, individual values",0.85 ng/mL
same,AUC(0-t),"[8]; human, plasma, po, 1 mg, single dose Day 1, oral tablets, 1.0 mg, individual values",13.5 ng·h/mL
same,Cmax,"[8]; human, plasma, po, 1 mg, Cmax, single dose Day 1, oral tablets, 1.0 mg, individual values",1.71 ng/mL
same,AUC(0-t),"[8]; human, plasma, po, 2 mg, single dose Day 1, oral tablets, 2.0 mg, mean (CV %) and range",44.2 to 77.4 ng·h/mL
same,Cmax,"[8]; human, plasma, po, 2 mg, Cmax, single dose Day 1, oral tablets, 2.0 mg, mean (CV %) and range",5.4 to 8.81 ng/mL
same,Tmax,"[8]; human, plasma, po, 2 mg, single dose Day 1, oral tablets, 2.0 mg",1.5 to 2 h
same,AUC(0-t),"[8]; human, plasma, po, 2.5 mg, single dose Day 1, oral tablets, 2.5 mg, mean (CV %) and range",47.3 to 95.9 ng·h/mL
same,Cmax,"[8]; human, plasma, po, 2.5 mg, Cmax, single dose Day 1, oral tablets, 2.5 mg, mean (CV %) and range",6.7 to 16.2 ng/mL
same,Tmax,"[8]; human, plasma, po, 2.5 mg, single dose Day 1, oral tablets, 2.5 mg",1 to 2 h
same,AUC(0-t),"[8]; human, plasma, po, 3 mg, single dose Day 1, oral tablets, 3.0 mg, mean (CV %) and range",27.6 to 188 ng·h/mL
same,Cmax,"[8]; human, plasma, po, 3 mg, Cmax, single dose Day 1, oral tablets, 3.0 mg, mean (CV %) and range",2.82 to 22.9 ng/mL
same,Tmax,"[8]; human, plasma, po, 3 mg, single dose Day 1, oral tablets, 3.0 mg",0.5 to 3 h
same,AUC(0-t),"[8]; human, plasma, po, 4 mg, single dose Day 1, oral tablets, 4.0 mg, mean (CV %) and range",167 to 275 ng·h/mL
same,Cmax,"[8]; human, plasma, po, 4 mg, Cmax, single dose Day 1, oral tablets, 4.0 mg, mean (CV %) and range",16.3 to 34.2 ng/mL
same,AUC(0-t),"[8]; human, plasma, po, 6 mg, Day 1, oral tablets, 6.0 mg loading dose, mean (CV %) and range",96.7 to 320 ng·h/mL
same,Cmax,"[8]; human, plasma, po, 6 mg, Cmax, Day 1, oral tablets, 6.0 mg loading dose, mean (CV %) and range",6.91 to 37.2 ng/mL
same,Tmax,"[8]; human, plasma, po, 6 mg, Day 1, oral tablets, 6.0 mg loading dose",1.05 to 8.08 h
same,AUC(0-t),"[8]; human, plasma, po, 8 mg, Day 1, oral tablets, 8.0 mg loading dose, mean (CV %) and range",62.9 to 308 ng·h/mL
same,Cmax,"[8]; human, plasma, po, 8 mg, Cmax, Day 1, oral tablets, 8.0 mg loading dose, mean (CV %) and range",4.28 to 32 ng/mL
same,Tmax,"[8]; human, plasma, po, 8 mg, Day 1, oral tablets, 8.0 mg loading dose",1 to 24 h
same,AUC(0-t),"[8]; human, plasma, po, 10 mg, Day 1, oral tablets, 10.0 mg loading dose, mean (CV %) and range",773 to 979 ng·h/mL
same,Cmax,"[8]; human, plasma, po, 10 mg, Cmax, Day 1, oral tablets, 10.0 mg loading dose, mean (CV %) and range",65.1 to 87.8 ng/mL
same,Tmax,"[8]; human, plasma, po, 10 mg, Day 1, oral tablets, 10.0 mg loading dose",1 to 2 h
same,AUC (0-24),[8]; [10],2.13 ng·h/mL and 9.69 ng·h/mL
same,C24,[8]; [10],0 ng/mL and 0.31 ng/mL
same,AUC (0-24),[8]; [11],12.2 ng·h/mL
same,C24,[8]; [11],0.38 ng/mL and 0.27 ng/mL
same,Cmax,[8]; [11],1.96 ng/mL
same,C24,"[8]; single dose Day 1, oral tablets, 2.0 mg, mean (CV %) and range",(1.15-1.93) ng/mL
same,C24,"[8]; single dose Day 1, oral tablets, 2.5 mg, mean (CV %) and range",(1.25-3.10) ng/mL
same,C24,"[8]; single dose Day 1, oral tablets, 3.0 mg, mean (CV %) and range",(0.75-13.4) ng/mL
same,C24,"[8]; single dose Day 1, oral tablets, 4.0 mg, mean (CV %) and range",(5.53-14.9) ng/mL
same,AR (Accumulation Ratio),"[9]; repeat dose Day 15, 0.50 mg",28.3 and 10.2
same,"T1/2, eff (Effective Half-Life)","[9]; repeat dose Day 15, 0.50 mg",461 h and 161 h
same,AR (Accumulation Ratio),"[9]; repeat dose Day 15, 1 mg",18.1 and 7.8
same,"T1/2, eff (Effective Half-Life)","[9]; repeat dose Day 15, 1 mg",293 h and 122 h
same,AR (Accumulation Ratio),"[9]; repeat dose Day 15, 4 mg",2.42 and 3.45
same,"T1/2, eff (Effective Half-Life)","[9]; repeat dose Day 15, 4 mg",48.5 h
